# What was measured:
# [1] = test system: NHDF cells; experiment: Experiment 2: collagen sedimented over cell surface and released in supernatant of NHDF cells, α,α-trehalose or maltose with AA-2G; assay type: cell-based, human; conditions: relative to AA-2G = 100
# Description: Influence of α,α-trehalose and maltose on collagen production using NHDF cells was examined by the following experiment: Test solutions were prepared by dissolving either AA-2G; hydrous crystalline α,α-trehalose, a reagent grade specimen, commercialized by Hayashibara Biochemical Laboratories Inc., Okayama, Japan; or hydrous crystalline maltose, a reagent grade specimen, commercialized by Hayashibara Biochemical Laboratories Inc., Okayama; Japan, in […] The methods for culturing NHDF cells and quantifying the collagen-production level of the cells were conducted similarly as in Experiment 1. The collagen level in each culture supernatant of NHDF cells was determined in such a manner of collecting the culture supernatant and quantifying the collagen released in the supernatant by using “Sircol Collagen Quantification Kit”. As a control, D-MEM medium containing 50 μM AA-2G was used. These control and test solutions were respectively experimented using three wells, followed by calculating a mean value for collagen-production levels in the wells. The results are in Table 2 where the values are expressed with relative values for either or both of the levels of collagen, that had sedimented over the cell surfaces or released in the supernatants, in terms of their collagen-production levels of NHDF cells, which had been cultured in D-MEM medium containing 50 μM AA-2G, being regarded as 100.
# [2] = test system: NHDF cells; experiment: Experiment 3: collagen production in NHDF cells, α,α-trehalose and saccharide derivatives with or without AA-2G; assay type: cell-based, human; conditions: relative to AA-2G = 100
# Description: Based on the confirmation that α,α-trehalose has an action of enhancing the collagen production by L-ascorbic acid, it was experimented as follows to confirm whether saccharide derivatives of α,α-trehalose have such a similar action and effect. Test solutions were prepared by dissolving in D-MEM medium any one of AA-2G, hydrous crystalline α,α-trehalose, a reagent grade specimen with a purity of at least 98%, commercialized by Hayashibara Biochemical Laboratories Inc., Okayama, Japan; “HALLODEX”, a product name of a syrup of saccharide derivatives of α,α-trehalose, having a solid content of about 75% and containing, on a dry solid basis, about 53% of α-maltosyl α,α-trehalose and about 5% of other saccharide derivatives of α,α-trehalose in total, to give final concentrations of 50 μM of AA-2G and 15.0 mg/ml of saccharides. As a control, test solutions were prepared by dissolving in D-MEM medium either of the above hydrous crystalline α,α-trehalose, α-maltosyl α,α-trehalose, or syrup of saccharide derivatives of α,α-trehalose to give a final concentration of 15.0 mg/ml. The medium admixed with the syrup containing saccharide derivatives of α,α-trehalose was adjusted to give a concentration of 15.0 mg/ml of saccharide derivatives of α,α-trehalose. The culture of NHDF cells and the quantification of collagen-production level thereof were carried out similarly as in Experiment 1. The results are in Table 3, where the values are expressed with relative values in terms of the collagen production level of NHDF cells, being regarded as 100, when cultured in D-MEM medium containing AA-2G.
# [3] = test system: skin wrinkles/finely-wrinkles and flabby skin; experiment: Experiment 5: self-evaluation of lotions on skin wrinkles/finely-wrinkles and flabby skin, four months; assay type: in vivo, human; conditions: 4 months; for Evaluation A (remarkably efficacious) / Evaluation B (efficacious) / Evaluation C (slightly efficacious) / Evaluation D (inefficacious): lotion
# Description: The following experiment was conducted to examine the influence of α,α-trehalose or saccharide derivatives thereof and hyaluronic acid and/or chondroitin sulfate on the skin. Since there exists a relatively constant amount of L-ascorbic acid in vivo, the collagen production by L-ascorbic acid proceeds constantly. Based on the following basic formulation for lotion and the combination and composition in Table 5, 100 parts by weights of a lotion was prepared by adding to the basic formulation sodium hyaluronate, chondroitin sulfate, hydrous crystalline α,α-trehalose, a cosmetic grade specimen commercialized by Hayashibara Biochemical Laboratories Inc., Okayama, Japan, and “[…]”, a product name of a syrup having a solid content of about 75% and containing, on a dry solid basis, about 53% by weight of α-maltosyl α,α-trehalose and about 5% by weight of other saccharide derivatives of α,α-trehalose, and an adequate amount of refined water. In Table 5, the respective amounts of the added saccharide are expressed on a dry solid basis. The syrup containing saccharide derivatives of α,α-trehalose was added in an amount of the saccharide derivatives as shown in Table 5. Eleven women as volunteers, who had been suffering from skin wrinkles/finely-wrinkles or flabby skin, were allowed to wash their faces with any of the lotions having compositions in Table 5 three times a day for four months and then allowed to evaluate themselves about their face-skin conditions by comparing with those before use of the lotions.
# [4] = saccharide 0.2 mg/ml + 50 μM AA-2G
# [5] = saccharide 0.6 mg/ml + 50 μM AA-2G
# [6] = saccharide 1.7 mg/ml + 50 μM AA-2G
# [7] = saccharide 5.0 mg/ml + 50 μM AA-2G
# [8] = saccharide 15.0 mg/ml + 50 μM AA-2G
# [9] = added saccharide 0.05 part by weight, 3 times a day
# [10] = added saccharide 0.1 part by weight, 3 times a day
# [11] = added saccharide 1 part by weight, 3 times a day
# [12] = added saccharide 2 + chondroitin sulfate 0.5 part by weight
# [13] = added saccharide 2 + sodium hyaluronate 0.25 + chondroitin sulfate 0.25 part by weight
# [14] = added saccharide 2 + sodium hyaluronate 0.5 part by weight
# [15] = added saccharide 2 parts by weight, 3 times a day
# [16] = added saccharide 10 parts by weight, 3 times a day
# [17] = added saccharide 20 parts by weight, 3 times a day
smiles,measurement,setting,value
"OC[C@H]1O[C@H](O[C@H]2O[C@H](CO)[C@@H](O)[C@H](O)[C@H]2O)[C@H](O)[C@@H](O)[C@@H]1O [α,α-trehalose]","Collagen-production level, In supernatant",[1]; [4],103
same,"Collagen-production level, Total",[1]; [4],101
same,"Collagen-production level, In supernatant",[1]; [5],203
same,"Collagen-production level, Total",[1]; [5],131
same,"Collagen-production level, In supernatant",[1]; [6],250
same,"Collagen-production level, Total",[1]; [6],154
same,"Collagen-production level, In supernatant",[1]; [7],232
same,"Collagen-production level, Total",[1]; [7],169
same,"Collagen-production level, In supernatant",[1]; [8],1058
same,"Collagen-production level, Total",[1]; [8],335
same,Collagen-production level,[2]; [8],227
same,Collagen-production level,"[2]; saccharide 15.0 mg/ml, AA-2G not added",40
same,Evaluation A (remarkably efficacious),[3]; [9],0 number of volunteers
same,Evaluation B (efficacious),[3]; [9],0 number of volunteers
same,Evaluation C (slightly efficacious),[3]; [9],3 number of volunteers
same,Evaluation D (inefficacious),[3]; [9],8 number of volunteers
same,Evaluation A (remarkably efficacious),[3]; [10],0 number of volunteers
same,Evaluation B (efficacious),[3]; [10],2 number of volunteers
same,Evaluation C (slightly efficacious),[3]; [10],5 number of volunteers
same,Evaluation D (inefficacious),[3]; [10],4 number of volunteers
same,Evaluation A (remarkably efficacious),[3]; [11],2 number of volunteers
same,Evaluation B (efficacious),[3]; [11],2 number of volunteers
same,Evaluation C (slightly efficacious),[3]; [11],6 number of volunteers
same,Evaluation D (inefficacious),[3]; [11],1 number of volunteers
same,Evaluation A (remarkably efficacious),[3]; [12],3 number of volunteers
same,Evaluation B (efficacious),[3]; [12],5 number of volunteers
same,Evaluation C (slightly efficacious),[3]; [12],3 number of volunteers
same,Evaluation D (inefficacious),[3]; [12],0 number of volunteers
same,Evaluation A (remarkably efficacious),[3]; [13],6 number of volunteers
same,Evaluation B (efficacious),[3]; [13],3 number of volunteers
same,Evaluation C (slightly efficacious),[3]; [13],2 number of volunteers
same,Evaluation D (inefficacious),[3]; [13],0 number of volunteers
same,Evaluation A (remarkably efficacious),[3]; [14],3 number of volunteers
same,Evaluation B (efficacious),[3]; [14],4 number of volunteers
same,Evaluation C (slightly efficacious),[3]; [14],3 number of volunteers
same,Evaluation D (inefficacious),[3]; [14],1 number of volunteers
same,Evaluation A (remarkably efficacious),[3]; [15],2 number of volunteers
same,Evaluation B (efficacious),[3]; [15],4 number of volunteers
same,Evaluation C (slightly efficacious),[3]; [15],4 number of volunteers
same,Evaluation D (inefficacious),[3]; [15],1 number of volunteers
same,Evaluation A (remarkably efficacious),[3]; [16],3 number of volunteers
same,Evaluation B (efficacious),[3]; [16],3 number of volunteers
same,Evaluation C (slightly efficacious),[3]; [16],5 number of volunteers
same,Evaluation D (inefficacious),[3]; [16],0 number of volunteers
same,Evaluation A (remarkably efficacious),[3]; [17],3 number of volunteers
same,Evaluation B (efficacious),[3]; [17],3 number of volunteers
same,Evaluation C (slightly efficacious),[3]; [17],5 number of volunteers
same,Evaluation D (inefficacious),[3]; [17],0 number of volunteers
same,volunteers who evaluated the lotions efficacious or more,[3]; lotions with 2 to 20 parts by weight of saccharide,six

# Source: patent US20090110671A1, “AGENT FOR ENHANCHING THE PRODUCTION OF COLLAGEN AND IT'S USE” (priority 2005, published 2009)
